Test results taken from US20260125762A1, “METHODS OF IDENTIFYING AND TREATING TUMORS WITH SIGMA1 INHIBITORS” (Drexel University, priority 2016, published 2026).

What was measured:
[1] = system: COLO205; test: NCI-60 single-dose in vitro growth inhibition assay; type: cell-based, human; conditions: single-dose 10 μM
Method: (§1) As in FIG. 1, Compound CT-110 was used in single-dose (10 μM) in vitro growth inhibition assays of the NCI-60 cell lines. The NCI-60 panel contains 60 diverse human cancer cell lines screened with more than 100,000 chemical compounds for anticancer activity since 1990 by the Developmental Therapeutics Program (DTP). See Huang, et al., 2005, Pharmacogenomics J. 5:381-99; Staunton, et al., 2001, PNAS USA 98(19):10787-92; Covell, et al., 2007, Mol. Cancer Ther. 6:2261-70; Potti, et al., 2006. Nat. Med. 12(11):1294-300. Standardization of NCI-60 inhibition data into Z-scores. NCI-60 cell line percent growth data obtained after culture in the presence of CT-110 were converted to percent growth inhibition by the formula 100−% Growth. A Z-score for each cell line data point was calculated using the formula (X-value minus 60-element array average)/(Array standard deviation). Z-scores are associated with a normal distribution and are used (1) to indicate where a score lies relative to the entire data set, above or below the mean, and (2) to compare scores derived from different normal distributions. Narrowing the 25K+ CellMiner genes to a CT-110 inhibition signature set of 6 genes. Pattern comparison searching yielded a list of 1,080 genes having significant Pearson correlations (r>0.334 or r<−0.334) to the NCI-60 Z-score profile of CT-110. Cross-referencing this profile-matching list with 1,106 cancer-relevant genes comprising a 755-gene PanCancer and Custom Codeset, supplemented with 545 “Cancer Driver” genes (Integrative OncoGenomics, BROAD Institute TARGET Database v3, Targeted Therapies for Cancer), reduced the number of genes to fifty (50). NCI-60-based Z-score profiles for these 50 genes were obtained using the CellMiner “Cell Line Signature Analysis” query. […] Z-scores, reflective of gene expression level and directionality, were used to identify forty-five (45) genes out of the […] (Table 3) that had expression either up or down in at least 4 out of the 5 CT-110-sensitive or resistant cell lines (assessed independently). […] These six genes (CDH1, CREB3L4, PIK3C2B, RNF43, SREBF1 and ZMYM2) are the end result of the rational approach to establish a focused set of genes, with expression profiles reflecting the growth inhibition profile of CT-110 in sensitive and resistant cancer cell lines.

[2] = system: HT29; test: as above; type: cell-based, human; conditions: single-dose 10 μM
Method: as §1

[3] = system: MCF7; test: as above; type: cell-based, human; conditions: single-dose 10 μM
Method: as §1

[4] = system: OVCAR-3; test: as above; type: cell-based, human; conditions: single-dose 10 μM
Method: as §1

[5] = system: OVCAR-8; test: as above; type: cell-based, human; conditions: single-dose 10 μM
Method: as §1

[6] = system: RPMI-8226; test: as above; type: cell-based, human; conditions: single-dose 10 μM
Method: as §1

[7] = system: SK-MEL-28; test: as above; type: cell-based, human; conditions: single-dose 10 μM
Method: as §1

[8] = system: SK-MEL-2; test: as above; type: cell-based, human; conditions: single-dose 10 μM
Method: as §1

[9] = system: SK-MEL-5; test: as above; type: cell-based, human; conditions: single-dose 10 μM
Method: as §1

[10] = system: UACC-257; test: as above; type: cell-based, human; conditions: single-dose 10 μM
Method: as §1

[11] = system: BT474; test: BT474 orthotopic xenograft tumor growth; type: in vivo, female SCID Beige mice; conditions: BT474 (predicted sensitive) in mammary fat pad; 10 mg/kg ip q2d; treatment stopped Day 30
Method: (§2) BT474 cells (ATCC, Manassas, VA, cat #HTB-20) were implanted orthotopically (2×10^6 per mouse) as a mixture in Matrigel (50%) into the mammary fat pad of female SCID Beige mice (10 mice per treatment arm) and grown to a volume of about 125 mm^3 prior to compound administration. CT-110 was dosed alone at 10 mg/kg ip, once every two days (ip, q2d) in 1% (weight/volume) sodium carboxymethyl cellulose/0.5% (volume/volume) Tween-80. A control group received vehicle alone (1% (weight/volume) sodium carboxymethyl cellulose/0.5% (volume/volume) Tween-80ip q2d). All drug treatment was stopped on Day 30. The major endpoint is to assess whether the tumor growth can be delayed or mice can be cured. Tumor sizes are measured twice weekly in two dimensions using a caliper, and the volume is expressed in mm^3 using the formula: V=0.5 a×b^2 where a and b are the long and short diameters of the tumor, respectively. The tumor sizes are then used for the calculations of both T-C and T/C values. T-C is calculated with T as the median time (in days) required for the treatment group tumors to reach a predetermined size (e.g., 1,000 mm^3), and C is the median time (in days) for the control group tumors to reach the same size. The T/C value (in percent) is an indication of antitumor effectiveness, T and C are the mean volume of the treated and control groups, respectively, on a given day.

[12] = system: MDAMB231; test: MDAMB231 orthotopic xenograft tumor growth; type: in vivo, female SCID Beige mice; conditions: MDAMB231 (predicted resistant) in mammary fat pad; 10 mg/kg ip q2d; treatment stopped Day 20
Method: as §2, with “MDAMB231” for “BT474”, “#HTB-26)” for “#HTB-20)”, “75” for “125”, “20.” for “30.”

N=C(NCCCOc1ccc(F)cc1)Nc1ccc(Cl)cc1 [CT-110, 1-(3-(4-fluorophenoxy)propyl)-3-(4-chlorophenyl)guanidine]
70%: tumor growth T/C [11]
most sensitive: sensitivity to Sigma1 inhibition by CT-110 (growth inhibition rank in NCI-60) [1] | sensitivity to Sigma1 inhibition by CT-110 (growth inhibition rank in NCI-60) [2] | sensitivity to Sigma1 inhibition by CT-110 (growth inhibition rank in NCI-60) [3] | sensitivity to Sigma1 inhibition by CT-110 (growth inhibition rank in NCI-60) [9] | sensitivity to Sigma1 inhibition by CT-110 (growth inhibition rank in NCI-60) [10]
< 10%: tumor growth T/C [12]
most resistant: sensitivity to Sigma1 inhibition by CT-110 (growth inhibition rank in NCI-60) [4] | sensitivity to Sigma1 inhibition by CT-110 (growth inhibition rank in NCI-60) [5] | sensitivity to Sigma1 inhibition by CT-110 (growth inhibition rank in NCI-60) [6] | sensitivity to Sigma1 inhibition by CT-110 (growth inhibition rank in NCI-60) [7] | sensitivity to Sigma1 inhibition by CT-110 (growth inhibition rank in NCI-60) [8]
